Laboratory results taken from patent US8394629B2, “Use of vinca alkaloids and salts thereof” (Keio University, priority 2003, dated 2013).

Tests used:
[1] = test system: neonatal porcine pancreatic cells; experiment: Immunostaining of insulin-producing cells in cultured neonatal porcine pancreatic cells (Experiment example I); type: cell-based, pig; conditions: three weeks culture; nicotinamide 10 mM, HGF 10 ng/ml, conophylline 0.1 μg/ml; FIG. 2
Experimental: Neonatal pigs within 72 hours of birth were obtained from the (Takayama) pig farm. The whole pancreas (ventral and dorsal pancreas) was removed under general anesthesia immediately after animals were brought to the operating room. After elimination of connective tissue covering the removed pancreas and blood adhering to it, the pancreas was transferred to a 10 ml beaker and dissected into small pieces with ophthalmic scissors. The dissected pieces were transferred to a 100 ml conical flask, to which 50 to 60 ml of phosphate buffered saline (PBS) was added. After a 3 min rotation at 110 rpm on a low speed stirrer, the mixture was allowed to stand still and the supernatant was discarded. Then, 40 mL of phosphate buffered saline containing Liberase PI (Roche) at a concentration of 2.5 mg/ml was added. After an 8 min rotation at 110 rpm on a low speed stirrer, the mixture was allowed to stand still and the supernatant containing the cells was collected. The operation was repeated 5 times. The supernatant collected was centrifuged at 1200 rpm for 5 min. to collect cells. The cells collected in the centrifugal sedimentum was suspended in 25 to 50 ml of PBS, 25 ml of cell suspension was overlaid gently on 10 ml of Histopaque 1077 (Sigma), followed by centrifugation at 1800 rpm for 10 min. […]

[2] = test system: pancreatic acinar carcinoma AR42J-B13 cells; experiment: Morphological change and trypan blue exclusion test of AR42J-B13 cells; type: cell-based, rat
Experimental: (§1) DMEM was sterilized by filtration after its pH was adjusted to 7.4 in the presence of 20 mM HEPES-NaOH. AR42J-B13 cells (endowed by Dr. Itaru Kojima, Institute for Cellular and Molecular Regulation, Gunma University) a highly sensitive subclone of AR42J, were cultured at 37° C. in a 5% CO2 incubator with 20 ml of culture medium DMEM supplemented with 100 mg/l kanamycin, 0.6 g/l glutamine, 100 unit/ml penicillin G, 5 mM NaHCO3, and 10% FBS. To prevent transformation due to a high density of the cells and to retain differentiation ability of the cells, the cells were transferred every 2 to 3 days to maintain 2.5% to 5% of confluency. The cell transfer was performed as follows: After the medium was removed, the cells were washed twice in PBS^− (Ca^2+, Mg^2+-free PBS; 8 g/l, NaCl, 0.2 g/l KCl, 0.916 g/Na2HPO4, 0.2 g/l KH2PO4). Subsequently, the cells were detached using 2 ml of trypsin-EDTA solution, and then trypsin was inactivated by addition of 8 ml of the medium. […]
Cells that had been prepared at a density of 4×10^5 cells/ml were plated at 500 μl per well on 24-well plates, followed by incubation at 37° C. in a 5% CO2 incubator. […] Further, the photograph was enlarged 2.5 times and a morphological change was defined as having occurred when the full length of a cell in the diameter became 1.5 times; thus, the rates of morphological changes were determined.

[3] = test system: pancreatic acinar carcinoma AR42J-B13 cells; experiment: ELISA quantification of insulin secretion of differentiated AR42J-B13 cells; type: cell-based, rat; conditions: secretion below the detection level
[4] = test system: streptozotocin-administered rats; experiment: Blood glucose levels of streptozotocin-administered rats; type: in vivo, Wistar rats; conditions: 5 μg/g BW subcutaneously for seven consecutive days from day 1 after streptozotocin; versus control; P<0.05 / P<0.01; FIG. 4
Experimental: Ten 1-day old Wistar rats (purchased from Japan SLC, Shizuoka, Japan) were intraperitoneally injected with streptozotocin (purchased from Wako Pure Chemical Industries, Ltd., dissolved in […] citrate buffer (pH 4.5)) at 85 μg/g BW per rat. Streptozotocin decreases insulin production by destroying pancreatic β cells, thereby inducing diabetes. The day of streptozotocin injection was defined as day 0, Starting from the next day (day 1), five rats were injected subcutaneously with a solution (ethanol) of conophylline at 5 μg/g BW for seven consecutive days and their random blood glucose levels were measured daily. Five rats in the control group received the same volume of solvent (Control).

[5] = test system: pancreatic acinar carcinoma AR42 J-B13 cells; conditions: known from prior report; cited from earlier work
[6] = test system: pancreatic acinar carcinoma AR42J-B13 cells; experiment: Insulin immunofluorescence of AR42J-B13 cells; type: cell-based, rat; conditions: after 72 hours; conophylline 0.1 μg/ml, HGF 100 pM, activin A 2 nM
Experimental: as §1, with “medium. Subsequently, the cell were sedimented by centrifugation at 1000 rpm for 5 min, trypsin was removed, 10 ml of fresh medium was added, and transferred to be 2.5% to 5% of confluency. Cells were cryopreserved under the condition of 7.5% dimethyl sulfoxide (DMSO).” for “medium.”

[7] = test system: porcine pancreatic cells; experiment: Induction of insulin production in porcine pancreatic cells (statement in the description); type: cell-based, pig; conditions: no conditions given

NC(=O)c1cccnc1 [nicotinamide, reference compound]
insulin-producing cells colored in red (immunostaining) [1]: only a few insulin-producing cells

CC[C@@]12C=CCN3CC[C@]4(C(=C(C(=O)OC)C1)Nc1cc5c(cc14)[C@H]1[C@@H](O5)[C@H](O)[C@]4(CC)CC(C(=O)OC)=C5Nc6c(cc(O)c(OC)c6OC)[C@@]56CCN1[C@H]46)[C@H]32 (stereo in doubt) [conophyllidine]
morphological changes involved in insulin production ([2]; AR42J cells, no concentration given): confirmed to induce morphological changes

CC[C@@]12CC(C(=O)OC)=C3Nc4cc5c(cc4[C@@]34CCN(C[C@H]3O[C@H]31)[C@@H]24)[C@@H]1[C@H](O5)[C@@H](O)[C@@]2(CC)CC(C(=O)OC)=C3Nc4c(cc(O)c(OC)c4OC)[C@@]34CCN1[C@@H]24 [conophylline]
process outgrowth (morphological change) ([2]; conophylline 0.1 to 0.3 μg/ml, alone or with HGF): concentration-dependently induced
insulin secretion out of cells [3]: incapable of inducing insulin secretion out of cells
insulin-producing cells colored in red (immunostaining) [1]: only a few insulin-producing cells
blood glucose levels [4]: apparent decrease in blood glucose levels
insulin production of AR42J cells [5]: induces insulin production
insulin release into culture medium [5]: did not release insulin into culture medium

HGF: Hepatocyte growth factor (HGF), Sigma
red coloration of insulin in cells (immunofluorescence) [6]: no red coloration indicating insulin was observed

B1: Activin: activin A, which belongs to the TGF-β superfamily (protein, UniProt P08476 311-426, looked up)
Inhibin beta A chain: GLECDGKVNICCKKQFFVSFKDIGWNDWIIAPSGYHANYCEGECPSHIAGTSGSSLSFHSTVINHYRMRGHSPFANLKSCCVPTKLRPMSMLYYDDGQNIIKKDIQNMIVEECGCS
insulin production of AR42J cells [5]: capable of inducing AR42J cells to produce insulin
inducing insulin production of porcine pancreatic cells [7]: does not exhibit the effect
